Source: patent US5641480A, “Hair care compositions comprising heteroatom containing alkyl aldonamide compounds” (Lever Brothers Company, Division of Conopco, Inc., priority 1994, dated 1997)

Experiment: Ross-Miles foam height assay of aldonamides (Examples 81-84)
Assay type: physicochemical
Conditions: 0.1% aldonamide, 40° C. (if not soluble, about 5°-10° C. above Krafft point), 0 ppm hardness; for Foam Height Final: after 10 minutes
Method: In the Ross-Miles method, 200 mL of a suffactant solution contained in a pipette of specified dimensions with a 2.9 -mm-i.d. orifice is allowed to fall 90 cm onto 50 mL of the same solution contained in a cylindrical vessel maintained at a given temperature by means of a water jacket. The height of the foam produced in the cylindrical vessel is read immediately after all the solution has run out of the pipette and then again after a given amount of time.
Using this method, the foam production (initial foam height in mm) and foam stability (final foam height after 10 minutes in mm) were measured at 0.1% aldonamtde concentration, 40° C. and 0 ppm (parts per million) hardness.

Row | Foam Height Initial | Foam Height Final [mm] | Molecule
1 | 197 mm | 112 | CCCCCCCCCCCCOC(=O)C(C)NC(=O)[C@H](O)[C@@H](O)[C@H](O)[C@H](O)CO (mixture of isomers) [N--D-Gluconyl C12 DL-Alaninate, N-D-Gluconyl Dodecyl DL-Alaninate]
2 | 0 mm | 0 | CCCCCCCNC(=O)[C@H](O)[C@@H](O)[C@H](O)[C@H](O)CO [C7 D-Gluconamide]
3 | 0 mm | 0 | CCCCCCCCNC(=O)[C@H](O)[C@@H](O)[C@H](O)[C@H](O)CO [C8 D-Gluconamide]
4 | Insoluble | – | CCCCCCCCCCCCNC(=O)[C@H](O)[C@@H](O)[C@@H](O)[C@H](O)CO [C12 D-Galactonamide]
5 | Insoluble | – | CCCCCCCCCCCCNC(=O)[C@H](O)[C@H](O)[C@@H](O)[C@@H](O)[C@H](O)CO [C12 D-Glycero-L-Mannoheptonamide]
6 | Insoluble | – | CCCCCCCCCCCCNC(=O)[C@@H](O)[C@H](O)[C@H](O)[C@@H](O)CO [C12 L-Galactonamide]
7 | Insoluble | – | CCCCCCCCCCCCNC(=O)[C@H](O)[C@H](O)[C@@H](O)[C@@H](O)CO [C12 L-Mannonamide]
8 | 245 mm | 80 | CCCCCCCCCCCCOCCCNC(=O)[C@H](O)[C@H](O)[C@@H](O)[C@H](O)[C@H](O)CO [C12 Oxypropyl D-Glucoheptonamide]
9 | 184 mm | 103 | CCCCCCCCCCCCNC(=O)[C@H](O)[C@H](O)[C@H](O)CO [C12 Ribonamide, Dodecyl D-Ribonamide]
10 | Insoluble | – | CCCCCCCCCCCCCCNC(=O)[C@H](O)[C@@H](O)[C@H](O)[C@H](O)CO [C14 D-Gluconamide]
11 | 203 mm | 101 | CCCCCCCCCCCCCCOCCCNC(=O)[C@H](O)[C@@H](O)[C@H](O)[C@H](O)CO [C14 Oxypropyl D-Gluconamide]
12 | Insoluble | – | CCCCCCCCCCCCCCCCNC(=O)[C@H](O)[C@@H](O)[C@H](O)[C@H](O)CO [C16 D-Gluconamide]
13 | Insoluble | – | CCCCCCCCCCCCCCCCCCNC(=O)[C@H](O)[C@@H](O)[C@H](O)[C@H](O)CO [C18 D-Gluconamide]
14 | 0 mm | 0 | CCCCC(CC)COCCCNC(=O)[C@H](O)[C@@H](O)[C@H](O)[C@H](O)CO (stereo partly drawn) [Ethylhexyloxypropyl D-Gluconamide]
15 | 185 mm | 111 | CCCCCCCCCCCC(=O)OCCNC(=O)[C@H](O)[C@@H](O)[C@H](O)[C@H](O)CO [N--D-Gluconyl C12 Ester of Ethanolamine, N-D-gluconyl dodecyl ester of ethanolamine]
16 | 183 mm | 107 | CCCCCCCCCCCCOC(=O)CNC(=O)[C@H](O)[C@@H](O)[C@H](O)[C@H](O)CO [N--D-Gluconyl C12 Glycinate, N-D-Gluconyl Dodecyl Glycinate]
17 | 158 mm | 84 | CCCCCCCC/C=C\CCCCCCCCNCCCNC(=O)[C@H](O)[C@@H](O)[C@H](O)[C@H](O)CO [Oleylaminopropyl D-Gluconamide]
18 | 217 mm | 200 | Octyl/Decyloxypropyl D-Ribonamide [C8 /C10 Oxypropyl D-Ribonamide]
19 | 200 mm | 110 | dodecyl to pentadecyloxypropyl D-gluconamide [C12 -C15 Oxypropyl D-Gluconamide]

Row | Molecule | Foam Height Initial | Foam Height Final [mm]
20 | CCCCCCCCCCCCOCCOCCOC(=O)CNC(=O)[C@H](O)[C@@H](O)[C@H](O)[C@H](O)CO [N--D-Gluconyl C12 Di(oxyethyl) Glycinate, N-D-Gluconyl Dodecyldi(oxyethyl) Glycinate] | 203 mm | 169
